# pIC50: −log10 of the molar value.
# Legend:
# [1] = biological target: Activin receptor type-1-like (Homo sapiens) (UniProt P37023); assay: Selectivity interaction (KinomeScan (DiscoverX)) EUB0001079a ACVRL1; conditions: at 1 µM
# [2] = biological target: Mitogen-activated protein kinase kinase kinase 1 (Homo sapiens, UniProt Q13233); assay: Selectivity interaction (Kinase panel (KiNativ target engagement assay in Jurkat cells)) EUB0001635a MAP3K1; assay type: cell-based; conditions: Selectivity number of off-targets 0.0, Selectivity number of targets 233.0, Source Knowledge https://www.sciencedirect.com/science/article/pii/S2451945619300674?via%3Dihub, at 1 µM
# [3] = biological target: Platelet-derived growth factor receptor alpha (Homo sapiens, UniProt P16234); assay: Selectivity interaction (Kinase panel (33PanQinase(R) Activity Assay)) EUB0000877a PDGFRA
# [4] = biological target: Ribosomal protein S6 kinase alpha-6 (Homo sapiens, UniProt Q9UK32); conditions: at 10 µM
# [5] = biological target: Tyrosine-protein kinase Srms (Homo sapiens) (UniProt Q9H3Y6); conditions: at 10 µM
# [6] = biological target: Tyrosine-protein kinase Fyn (Homo sapiens) (UniProt P06241); conditions: at 10 µM
# [7] = biological target: Calcium/calmodulin-dependent protein kinase type 1G (Homo sapiens) (UniProt Q96NX5); assay: Selectivity interaction (Ambit KINOMEscan and KiNATiv profiling in Jurkat cells) EUB0000090b CAMK1G; assay type: cell-based; conditions: at 1 µM
# [8] = biological target: T1, TGF-beta receptor type-1 (Homo sapiens) (UniProt P36897); assay: Selectivity interaction (KinomeScan (DiscoverX)) EUB0000045b TGFBR1
# T1 sequence (whole entry): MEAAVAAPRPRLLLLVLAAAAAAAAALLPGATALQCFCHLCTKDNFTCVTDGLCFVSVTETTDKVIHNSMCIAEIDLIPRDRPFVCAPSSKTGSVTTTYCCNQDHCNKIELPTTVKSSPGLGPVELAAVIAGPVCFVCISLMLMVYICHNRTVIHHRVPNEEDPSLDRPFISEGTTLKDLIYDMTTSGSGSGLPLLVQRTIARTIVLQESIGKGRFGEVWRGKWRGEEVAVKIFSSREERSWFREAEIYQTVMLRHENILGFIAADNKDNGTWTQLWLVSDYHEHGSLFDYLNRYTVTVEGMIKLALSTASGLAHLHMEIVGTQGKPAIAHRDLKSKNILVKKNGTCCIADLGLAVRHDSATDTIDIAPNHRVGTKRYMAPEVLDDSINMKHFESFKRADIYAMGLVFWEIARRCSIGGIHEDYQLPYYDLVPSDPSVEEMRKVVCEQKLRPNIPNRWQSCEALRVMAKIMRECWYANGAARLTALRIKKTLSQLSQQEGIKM
# [9] = biological target: Cyclin-dependent kinase 9 (Homo sapiens, UniProt P50750); conditions: at 10 µM
# [10] = biological target: Calcium/calmodulin-dependent protein kinase kinase 1 (Homo sapiens) (UniProt Q8N5S9); assay: Selectivity interaction (KinomeScan (DiscoverX)) EUB0001619a CAMKK1; conditions: at 1 µM
# [11] = biological target: NT-3 growth factor receptor (Homo sapiens, UniProt Q16288); assay: Selectivity interaction (KinomeScan (DiscoverX)) EUB0000655a NTRK3; conditions: at 10 µM
# [12] = biological target: T2, Tyrosine-protein kinase receptor TYRO3 (Homo sapiens) (UniProt Q06418); assay: Selectivity interaction (KinomeScan (DiscoverX)) EUB0000655a TYRO3; conditions: at 10 µM
# T2 sequence (whole entry): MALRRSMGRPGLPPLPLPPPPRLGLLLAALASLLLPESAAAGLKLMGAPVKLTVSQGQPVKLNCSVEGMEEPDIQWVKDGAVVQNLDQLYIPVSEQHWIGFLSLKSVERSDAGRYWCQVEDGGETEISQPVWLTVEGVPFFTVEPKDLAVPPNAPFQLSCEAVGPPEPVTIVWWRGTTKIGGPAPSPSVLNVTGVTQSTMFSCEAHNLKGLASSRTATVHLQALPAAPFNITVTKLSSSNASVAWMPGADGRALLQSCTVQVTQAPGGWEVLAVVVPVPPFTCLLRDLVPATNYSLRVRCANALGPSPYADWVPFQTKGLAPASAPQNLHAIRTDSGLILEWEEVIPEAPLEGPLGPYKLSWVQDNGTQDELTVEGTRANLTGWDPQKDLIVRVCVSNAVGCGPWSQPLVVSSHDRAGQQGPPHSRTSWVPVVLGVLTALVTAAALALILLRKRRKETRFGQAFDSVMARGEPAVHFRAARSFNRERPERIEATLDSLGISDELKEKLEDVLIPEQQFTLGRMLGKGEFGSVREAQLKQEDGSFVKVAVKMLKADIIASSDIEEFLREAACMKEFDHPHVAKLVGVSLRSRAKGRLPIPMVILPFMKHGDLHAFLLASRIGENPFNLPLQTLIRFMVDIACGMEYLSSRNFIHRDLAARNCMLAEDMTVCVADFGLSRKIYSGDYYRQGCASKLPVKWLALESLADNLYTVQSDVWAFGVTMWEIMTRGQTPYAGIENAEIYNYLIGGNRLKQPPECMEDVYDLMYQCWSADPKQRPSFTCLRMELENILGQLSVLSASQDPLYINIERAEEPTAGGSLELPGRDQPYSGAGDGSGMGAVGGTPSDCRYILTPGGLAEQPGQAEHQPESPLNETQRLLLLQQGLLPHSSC
# [13] = biological target: Vascular endothelial growth factor receptor 1 (Homo sapiens) (UniProt P17948); assay: Selectivity interaction (Kinase panel (Z-LYTE Assay)) EUB0001632a FLT1; conditions: at 10 µM
# [14] = biological target: Cyclin-Y/Cyclin-dependent kinase 16 (Homo sapiens) (UniProt Q00536+Q8ND76); assay: Selectivity interaction (ProQinase) EUB0000171b CDK16; assay type: protein-complex assay
# [15] = biological target: T3, MAP kinase-activated protein kinase 5 (Homo sapiens) (UniProt Q8IW41); assay: Selectivity interaction (ProQinase) EUB0000171b MAPKAPK5
# T3 sequence (whole entry): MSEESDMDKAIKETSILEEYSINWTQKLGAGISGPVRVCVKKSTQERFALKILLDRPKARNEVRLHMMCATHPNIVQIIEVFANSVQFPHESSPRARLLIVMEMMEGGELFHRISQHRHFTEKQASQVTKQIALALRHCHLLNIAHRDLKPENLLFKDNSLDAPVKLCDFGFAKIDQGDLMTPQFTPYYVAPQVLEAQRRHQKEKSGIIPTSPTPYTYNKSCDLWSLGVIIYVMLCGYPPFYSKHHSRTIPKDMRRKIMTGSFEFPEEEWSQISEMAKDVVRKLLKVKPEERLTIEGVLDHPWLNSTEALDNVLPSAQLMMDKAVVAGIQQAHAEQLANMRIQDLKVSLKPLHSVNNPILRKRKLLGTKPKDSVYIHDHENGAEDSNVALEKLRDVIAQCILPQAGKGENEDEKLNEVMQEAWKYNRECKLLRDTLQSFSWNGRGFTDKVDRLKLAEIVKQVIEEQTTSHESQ
# Tyrosine-protein kinase Fyn (Homo sapiens), sequence (P06241 2-537 limits assumed): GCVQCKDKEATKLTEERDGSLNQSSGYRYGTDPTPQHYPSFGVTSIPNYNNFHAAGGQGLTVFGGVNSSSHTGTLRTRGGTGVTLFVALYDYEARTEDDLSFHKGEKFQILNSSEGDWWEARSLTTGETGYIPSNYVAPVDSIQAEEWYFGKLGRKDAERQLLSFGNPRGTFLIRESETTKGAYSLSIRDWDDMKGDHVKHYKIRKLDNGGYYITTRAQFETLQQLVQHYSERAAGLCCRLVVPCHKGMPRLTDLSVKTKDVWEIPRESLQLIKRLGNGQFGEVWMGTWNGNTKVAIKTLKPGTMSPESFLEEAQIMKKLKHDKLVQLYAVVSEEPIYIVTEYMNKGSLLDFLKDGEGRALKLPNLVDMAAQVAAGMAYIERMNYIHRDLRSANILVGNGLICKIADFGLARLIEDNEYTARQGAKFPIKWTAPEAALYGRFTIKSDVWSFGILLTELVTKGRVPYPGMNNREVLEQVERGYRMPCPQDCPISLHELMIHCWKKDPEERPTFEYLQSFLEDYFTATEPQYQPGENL
# NT-3 growth factor receptor, sequence (Q16288 32-839 limits assumed): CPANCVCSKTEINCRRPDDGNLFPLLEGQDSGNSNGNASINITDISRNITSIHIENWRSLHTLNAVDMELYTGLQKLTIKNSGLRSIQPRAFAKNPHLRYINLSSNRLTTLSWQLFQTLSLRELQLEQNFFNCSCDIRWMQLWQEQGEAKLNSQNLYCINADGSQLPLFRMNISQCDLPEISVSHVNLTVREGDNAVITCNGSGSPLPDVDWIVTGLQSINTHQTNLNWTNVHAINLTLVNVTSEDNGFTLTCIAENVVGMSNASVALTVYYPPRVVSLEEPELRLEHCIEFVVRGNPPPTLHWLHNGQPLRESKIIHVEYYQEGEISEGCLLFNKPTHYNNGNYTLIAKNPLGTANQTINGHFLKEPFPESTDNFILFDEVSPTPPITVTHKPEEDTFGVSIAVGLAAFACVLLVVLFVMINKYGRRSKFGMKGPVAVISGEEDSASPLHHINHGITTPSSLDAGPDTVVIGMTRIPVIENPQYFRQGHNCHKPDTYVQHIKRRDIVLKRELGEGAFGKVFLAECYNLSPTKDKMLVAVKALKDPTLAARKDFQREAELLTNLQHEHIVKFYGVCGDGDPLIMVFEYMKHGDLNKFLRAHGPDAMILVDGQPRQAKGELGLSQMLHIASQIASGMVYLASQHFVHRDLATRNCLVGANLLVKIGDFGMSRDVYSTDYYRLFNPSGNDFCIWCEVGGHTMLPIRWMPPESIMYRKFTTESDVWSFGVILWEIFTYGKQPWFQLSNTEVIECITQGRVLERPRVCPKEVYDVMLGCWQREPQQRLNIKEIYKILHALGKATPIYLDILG
# Calcium/calmodulin-dependent protein kinase kinase 1 (Homo sapiens), sequence (Q8N5S9 whole entry, looked up): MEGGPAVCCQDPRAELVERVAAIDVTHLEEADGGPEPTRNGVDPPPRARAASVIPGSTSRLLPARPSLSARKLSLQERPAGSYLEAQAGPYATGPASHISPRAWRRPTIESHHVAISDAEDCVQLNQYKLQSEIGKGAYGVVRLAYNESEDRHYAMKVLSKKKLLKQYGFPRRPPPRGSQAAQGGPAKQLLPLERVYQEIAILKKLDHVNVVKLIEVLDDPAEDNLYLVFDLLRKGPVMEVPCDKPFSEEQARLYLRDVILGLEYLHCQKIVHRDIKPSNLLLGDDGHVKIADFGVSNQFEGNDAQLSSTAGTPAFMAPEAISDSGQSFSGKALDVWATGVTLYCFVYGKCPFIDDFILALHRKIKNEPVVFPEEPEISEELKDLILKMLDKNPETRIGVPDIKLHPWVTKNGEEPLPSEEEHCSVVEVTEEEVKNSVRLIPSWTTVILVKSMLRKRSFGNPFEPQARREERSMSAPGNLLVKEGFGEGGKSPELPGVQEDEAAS
# Ribosomal protein S6 kinase alpha-6, sequence (Q9UK32 whole entry): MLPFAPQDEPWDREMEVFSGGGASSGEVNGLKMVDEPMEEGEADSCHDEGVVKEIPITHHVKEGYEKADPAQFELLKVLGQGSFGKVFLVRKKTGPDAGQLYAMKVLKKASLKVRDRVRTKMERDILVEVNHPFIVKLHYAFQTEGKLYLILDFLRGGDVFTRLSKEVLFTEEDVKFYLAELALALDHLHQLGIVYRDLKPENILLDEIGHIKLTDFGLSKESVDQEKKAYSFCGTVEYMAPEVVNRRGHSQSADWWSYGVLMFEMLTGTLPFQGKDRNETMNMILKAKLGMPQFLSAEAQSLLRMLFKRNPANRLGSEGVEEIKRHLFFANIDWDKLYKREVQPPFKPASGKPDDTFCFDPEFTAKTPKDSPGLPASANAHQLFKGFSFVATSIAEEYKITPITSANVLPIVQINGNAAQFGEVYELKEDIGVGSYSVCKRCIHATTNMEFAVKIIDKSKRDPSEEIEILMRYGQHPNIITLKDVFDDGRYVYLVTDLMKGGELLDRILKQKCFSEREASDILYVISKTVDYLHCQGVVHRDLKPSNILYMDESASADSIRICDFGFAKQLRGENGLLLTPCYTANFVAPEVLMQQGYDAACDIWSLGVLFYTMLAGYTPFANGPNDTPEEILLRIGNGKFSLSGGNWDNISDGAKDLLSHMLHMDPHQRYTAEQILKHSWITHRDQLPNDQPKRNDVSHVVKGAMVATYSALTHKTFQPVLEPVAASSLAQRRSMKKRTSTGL
# Cyclin-dependent kinase 9, sequence (P50750 whole entry): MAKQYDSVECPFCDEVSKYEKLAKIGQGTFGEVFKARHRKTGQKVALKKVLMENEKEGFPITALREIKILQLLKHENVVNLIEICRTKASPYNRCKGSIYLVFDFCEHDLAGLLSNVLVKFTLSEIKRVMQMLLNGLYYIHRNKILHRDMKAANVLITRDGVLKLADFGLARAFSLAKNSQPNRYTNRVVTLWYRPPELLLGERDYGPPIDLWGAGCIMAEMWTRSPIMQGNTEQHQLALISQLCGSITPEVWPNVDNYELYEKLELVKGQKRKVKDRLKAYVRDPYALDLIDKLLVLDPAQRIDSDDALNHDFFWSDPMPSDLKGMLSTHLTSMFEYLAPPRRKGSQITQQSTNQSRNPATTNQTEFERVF
# Vascular endothelial growth factor receptor 1 (Homo sapiens), sequence (P17948 whole entry): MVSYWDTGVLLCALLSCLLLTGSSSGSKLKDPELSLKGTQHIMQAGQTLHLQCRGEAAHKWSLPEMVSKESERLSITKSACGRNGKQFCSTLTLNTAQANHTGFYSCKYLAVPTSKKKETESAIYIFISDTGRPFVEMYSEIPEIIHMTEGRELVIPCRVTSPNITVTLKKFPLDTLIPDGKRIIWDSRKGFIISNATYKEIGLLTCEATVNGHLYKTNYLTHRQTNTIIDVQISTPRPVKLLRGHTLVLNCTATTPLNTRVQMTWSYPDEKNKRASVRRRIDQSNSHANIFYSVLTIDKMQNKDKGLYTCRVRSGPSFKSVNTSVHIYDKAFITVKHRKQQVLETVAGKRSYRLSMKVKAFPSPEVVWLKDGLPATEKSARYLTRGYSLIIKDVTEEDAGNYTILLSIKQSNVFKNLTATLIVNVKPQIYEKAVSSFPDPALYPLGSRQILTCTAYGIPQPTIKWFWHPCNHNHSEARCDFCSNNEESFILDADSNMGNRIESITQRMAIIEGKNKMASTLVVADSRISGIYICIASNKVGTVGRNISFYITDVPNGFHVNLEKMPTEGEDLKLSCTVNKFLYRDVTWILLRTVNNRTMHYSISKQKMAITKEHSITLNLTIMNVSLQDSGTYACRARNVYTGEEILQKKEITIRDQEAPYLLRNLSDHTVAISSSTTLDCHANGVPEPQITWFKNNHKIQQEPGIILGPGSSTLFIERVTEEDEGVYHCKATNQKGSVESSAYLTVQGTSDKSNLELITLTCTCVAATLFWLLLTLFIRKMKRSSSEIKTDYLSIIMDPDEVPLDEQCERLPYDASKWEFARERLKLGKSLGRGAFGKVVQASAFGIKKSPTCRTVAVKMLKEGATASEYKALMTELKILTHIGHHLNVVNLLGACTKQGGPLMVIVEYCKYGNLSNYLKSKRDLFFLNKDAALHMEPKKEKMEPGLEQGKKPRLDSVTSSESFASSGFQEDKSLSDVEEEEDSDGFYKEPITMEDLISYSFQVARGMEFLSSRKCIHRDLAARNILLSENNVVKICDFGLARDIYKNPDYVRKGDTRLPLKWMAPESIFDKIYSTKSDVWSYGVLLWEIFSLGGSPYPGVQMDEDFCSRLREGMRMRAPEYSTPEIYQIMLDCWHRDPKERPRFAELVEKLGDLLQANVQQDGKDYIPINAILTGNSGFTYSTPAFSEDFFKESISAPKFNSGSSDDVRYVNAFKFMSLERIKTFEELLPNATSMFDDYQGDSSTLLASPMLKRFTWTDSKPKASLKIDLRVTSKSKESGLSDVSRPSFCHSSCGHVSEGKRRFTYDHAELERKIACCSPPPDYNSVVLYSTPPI
# Tyrosine-protein kinase Srms (Homo sapiens), sequence (Q9H3Y6 whole entry): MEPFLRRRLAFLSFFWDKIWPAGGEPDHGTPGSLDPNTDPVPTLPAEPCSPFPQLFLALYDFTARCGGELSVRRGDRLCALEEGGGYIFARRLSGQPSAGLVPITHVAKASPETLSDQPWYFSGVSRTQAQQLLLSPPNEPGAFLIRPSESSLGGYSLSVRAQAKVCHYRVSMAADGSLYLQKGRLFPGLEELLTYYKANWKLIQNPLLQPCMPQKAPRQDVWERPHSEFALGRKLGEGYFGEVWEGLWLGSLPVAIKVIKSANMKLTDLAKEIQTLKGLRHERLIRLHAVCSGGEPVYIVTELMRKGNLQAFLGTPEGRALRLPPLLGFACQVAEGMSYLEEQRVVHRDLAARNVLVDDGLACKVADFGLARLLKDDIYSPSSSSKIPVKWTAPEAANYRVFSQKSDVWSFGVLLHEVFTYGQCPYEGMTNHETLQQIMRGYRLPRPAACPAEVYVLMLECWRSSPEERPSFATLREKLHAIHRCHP
smiles,measurement,setting,value
Nc1cnc(N2CCc3cc(S(=O)(=O)Nc4c(F)cc(Cl)cc4F)cc(N4CCCC4=O)c32)nc1 [TP-020n],% of control,[1],86%
C=CC(=O)Nc1ccc(C(=O)Nc2[nH]nc3c2CN(C(=O)N[C@H](CN(C)C)c2ccccc2)C3(C)C)cc1,% of engagement,[2],12.9%
CCC(=O)N1CC[C@H](Nc2ncnc3c2CN(c2cnc(OC)c(C(F)(F)F)c2)CC3)C1 [LENIOLISIB],pIC50,[3],< 5.00
CCN(CC)CCCCNc1ncc2cc(-c3cc(OC)cc(OC)c3)c(NC(=O)NC(C)(C)C)nc2n1,% of control,[4],100%
same,% of control,[5],100%
COCC(=O)NC/C=C/c1ccc2ncnc(Nc3ccc(Oc4ccc(C)nc4)c(C)c3)c2c1 [CP-724714],% of control,[6],100%
CN(C)C/C=C/C(=O)Nc1ccc(C(=O)N2CCCC(Nc3ncc(Cl)c(-c4c[nH]c5ccccc45)n3)C2)cc1 (stereo not drawn),% of control,[7],81%
C=CC(=O)Nc1cc(-n2c(=O)ccc3cnc4ccc(-c5ccc(NS(C)(=O)=O)cc5)cc4c32)ccc1C,% of control,[8]; at 1 µM,97%
same,% of control,[8]; at 10 µM,100%
Cc1cc([C@@H](C)Nc2ccccc2C(=O)O)c2nc(N3CCOCC3)cc(=O)n2c1 [AZD-6482],% of control,[9],100%
N#Cc1cccc(-c2c[nH]c3ncnc(N4CCOCC4)c23)c1,% of control,[10],100%
CN(C)CCOc1ccc(-c2nc(-c3ccncc3)c(-c3ccc4c(c3)CC/C4=N\O)[nH]2)cc1,% of control,[11],45%
same,% of control,[12],100%
Cn1cc(-n2cnc3c(NCc4nc5cc(Cl)c(Cl)cc5[nH]4)nc(N4CCOCC4)nc32)cn1,% of control,[13],1.04%
C=CC(=O)Nc1cccc(C(=O)Nc2ccc(Nc3cc(-c4[nH]c(SC)nc4C)ccn3)cc2)c1,% of control,[14]; at 1 µM,88%
same,% of control,[14]; at 5 µM,87%
same,% of control,[15]; at 1 µM,96%
same,% of control,[15]; at 5 µM,97%

# — ChEMBL document CHEMBL5465560, “Selectivity Literature for EUbOPEN Chemogenomic Library” (2024)
